In patent publication US20030186946A1, “Suppression of cytotoxic protein conformers” (priority 2002, published 2003):
Read-outs that look alike come from different tables or passages of the source.

What was measured:
RINm5F cells [1] = system: RINm5F cells
Experimental: (§1) Cell Culture and Cytotoxicity Assays. RINm5F cells were cultured in RPMI 1640 medium containing 10% fetal bovine serum, 290 μg/mL L-glutamine, 100 IU/mL penicillin and 100 μg/mL streptomycin. Cells were plated at a density of 15×1 cells per well, incubated for 48 h, rinsed with PBS and placed in fresh medium containing Congo red. Freshly prepared human amylin in Milli-Q water, was preincubated with Congo red for 30 min, then added to the cell culture medium to give a final concentration of 30 μM. Cells were treated for 22 h with human amylin in the presence or absence of 100 μM Congo red. Cell viability was determined by double-staining with calcein-AM and ethidium homodimer-1. Green fluorescence of live cells and red fluorescence marking nuclei of dead cells were simultaneously visualized using a Zeiss Axiovert S100 microscope equipped with a Zeiss filter set # 09. Photographs were taken at 400× magnification using a Zeiss AxioCam digital camera.
(§2) A. Representative fluorescence micrograph of RINm5F cells treated with 30 μM human amylin for 22 h and stained with calcein-AM and ethidium homodimer-1 to show live cells (green) and dead cells (red). […] B. A representative micrograph of RINm5F cells treated with 30 μM human amylin and 100 μM Congo red stained as above. […] The percentage of live cells was determined for cells treated for 22 h with vehicle; 30 μM human amylin; 30 μM human amylin in the presence of 100 μM Congo red; or 30 μM rat amylin. Experiments were repeated independently 10 times except for human amylin plus Congo red (A+CR) which was repeated five times. Error bars represent the s.e.m of live and dead cell counts over 6-12 fields per condition.

human amylin [2] = molecular target: T1, human amylin (Homo sapiens, UniProt P10997); settings: 10 μM thioflavin-T
T1 sequence (P10997 34-70 limits assumed): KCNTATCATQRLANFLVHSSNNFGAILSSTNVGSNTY
Experimental: Thioflavin-T binding fluorescent assays. The effects of various polycyclic compounds on islet amyloid formation were measured by fluorescence spectroscopy, using a SpectraMAX Gemini XS Fluorescence Spectrophotometer (Molecular Devices Corporation, Sunnyvale, Calif.). Excitation and emission maxima were set to 450 nm and 510 nm respectively using a cutoff filter at 495 nm. Thioflavin-T binds to amylin fibrils, but not to monomeric amylin (Goldsbury et al., (1999), J. Mol. Biol., 285:33-39). […] The rate of amylin fibril formation was determined by following thioflavin-T fluorescence in the presence or absence of the potential inhibitory drug. […] Background fluorescence by acridine and acridine orange in the absence of amylin was subtracted from the experimental results. The control preparation contained human amylin and thioflavin-T in the absence of drug. The rate of fluorescence enhancement under these conditions was used to compare amylin fibril formation in the absence and presence of the drug. All other experimental conditions were identical.
Tri-prolyl amylin and rat amylin with thioflavin-T were also used as additional controls.
Each data point represents the mean±s.e.m of three separate reactions.
Effect of chlorpromazine on enhancement of thioflavin-Tfluorescence by human amylin (FIG. 2). Chlorpromazine (700 μM) (π) was incubated in 10 mM tris p H 7.4, with monomeric human amylin (70 μM) in the presence of thioflavin-T (10 μM). The fluorescence of the reaction was monitored over 24 hours as described in the methods. […] Each data point represents the mean±s.e.m of three separate reactions.
Effect of selected polycylic compounds on enhancement of thioflavin-Tfluorescence by human amylin (FIG. 3). Acridine, acridine orange, neutral red and methylene blue are selected examples of fused tricyclic ring compounds. […] Compound structures are shown adjacent to the appropriate graph. […] Fluorescence was monitored over 24 h as described in the Methods. A preparation containing human amylin and thioflavin-T only (▪), was included as a comparison in the absence of drug. […] Each data point represents the mean±s.e.m of three independent experiments.

human amylin [3] = molecular target: T1, human amylin; experiment: Radiolabelled precipitation assay of amylin fibril formation; assay type: biochemical; parameters: Amylin is a 37-residue; C-terminally amidated peptide having a disulfide bridge between the cysteines at residues 2 and 7; purchased Bachem Calif; (Torrance, Calif.); host or cells: chemical synthesis
Experimental: Radiolabelled Precipitation Assays. The precipitation of radiolabelled human and rat amylin fibrils was used as an independent method to monitor assembly of amylin fibrils in the presence or absence of potential inhibitors of amylin fibril formation. […] Incubation mixtures were then centrifuged at either 16,000×g or 100,000×g, for 20 min, and the amount of [^3H]-human amylin remaining in the supernatant after centrifugation was determined (Beckman LSW 3801 β-counter, USA). Results were expressed as percentages of precipitable counts per minute, relative to total radioactivity in the supernatant.
Incorporation of [^3H]-amylin into amylin fibrils was followed for 24 hours. Human amylin fibrils were precipitated by centrifugation at either 16,000×g (FIG. 7A) or at 100,000×g (FIG. 7B). Rat amylin (10 μM) in the presence of [^3H]-rat amylin was used as a non-fibril forming control (♦) (FIG. 7A). The results are shown as the percentage of precipitable radioactive amylin, relative to total radioactivity in the supernatant at each time point. Each data point represents the mean±s.e.m of three separate reactions.
The incorporation of radioactive monomeric amylin into the human amylin fibrils as they form, can be used to measure the rate at which amylin fibrils form in the presence or absence of a potential inhibitory drug. Amylin fibrils can be separated from solution by centrifugation and the amount of radioactive amylin precipitated in the amylin fibril pellet is then used as a measure of the amount of amylin fibrils present at that time.
Thioflavin-T, although not polycyclic, is widely used in fluorescent assays to measure amylin fibril formation. Incorporation of radioactivity into the pellet of an aliquot of the reaction mixture centrifuged at 16,000×g, for 20 minutes was monitored over the time periods indicated. Rat amylin (10 μM) with [^3H]-rat amylin added was used as a non fibril forming control (∘) in each experiment. The results are shown as the percentage of precipitable radioactive amyloid, relative to total radioactivity in the supernatant at each time point. Each data point represents the mean±s.e.m of three separate experiments.

human amylin [4] = molecular target: T1, human amylin; experiment: Electron microscopy of human amylin fibrils; assay type: biochemical; parameters: Amylin is a 37-residue; C-terminally amidated peptide having a disulfide bridge between the cysteines at residues 2 and 7; purchased Bachem Calif; (Torrance, Calif.); host or cells: chemical synthesis
Experimental: Electron Microscopy. […] Samples were removed at various time points and prepared for electron microscopy. Aliquots (8 μl) of the amylin fibril preparations were absorbed to glow-discharged carbon-coated collodion film on 200-mesh copper grids for 1 min. Grids were blotted, washed twice in droplets of deionised water and stained with 2% (w/v) uranyl acetate. Grids were examined in a Phillips Technai transmission electron microscope operated at 120 kV.
Samples were removed at various time points and prepared for electron microscopy according to the procedure described in the methods.
Electron Microscopy of human amylin fibrils in the presence and absence of quinacrine (FIG. 5). A 100 fold molar excess of quinacrine was incubated with human amylin. Samples were removed at various time points and prepared for electron microscopy according to the procedure described in the methods.
Electron Microscopy of human amylin fibrils in the presence and absence of selected polycyclic compounds (FIG. 6). […] Samples were removed and prepared for electron microscopy as described in the Methods. All experiments were performed in triplicate and the pictures above are representative of at least 6 photographs taken at each magnification.

RINm5F cells [5] = experiment: Cytotoxicity assay in RINm5F cells (calcein-AM / ethidium homodimer-1 staining); settings: relative molar ratios which produced suppression of amyloid aggregation (low μM)
Experimental: as §1, §2

[6] = 1200 μM compound (20-fold molar excess), 60 μM human amylin, over 24 h (FIG. 3)
[7] = 200 μM compound, 10 μM human amylin, after 72 h
[8] = 1200 μM compound, 60 μM human amylin, 10 mM tris pH 7.4, 24 h (FIG. 6)

| Structure (SMILES) | intrinsic cytotoxicity of compound to RINm5F β cells (RINm5F cells [1]) | enhancement of thioflavin-T fluorescence by human amylin (human amylin [2]; [6]) | level of precipitable amyloid (human amylin [3]; [7]) [%] | overall decrease in precipitable amyloid (human amylin [3]; [7]) [%] | morphology of human amylin fibrils (electron microscopy) (human amylin [4]; [8]) | effect on precipitable amyloid formation (human amylin [3]; 200 μM compound, 10 μM human amylin, 16,000×g (FIG. 8)) | intrinsic cytotoxicity of compound to RINm5F β cells (RINm5F cells [5]) | enhancement of thioflavin-T fluorescence by human amylin (human amylin [2]; 700 μM compound, 70 μM human amylin, 10 mM tris pH 7.4, over 72 hours (FIG. 1)) | rate of formation of human amylin fibrils (electron microscopy) (human amylin [4]; 700 μM tetracycline, 70 μM human amylin, 1.5 hours and 5 hours) | morphology of human amylin fibrils (electron microscopy) (human amylin [4]; 700 μM tetracycline, 70 μM human amylin, 29 hours and 48 hours) | morphology of pre-formed amylin fibrils (electron microscopy) (human amylin [4]; human amylin pre-incubated for 20 h, then tetracycline for 48 h) | reduction in the incorporation of radioactive human amylin into precipitable amylin fibrils (human amylin [3]; 100 μM tetracycline, 10 μM human amylin, 16,000×g) [%] | percentage of precipitable amylin fibrils on centrifugation at 100,000×g (human amylin [3]; 100 μM tetracycline, 10 μM human amylin, 100,000×g (FIG. 7B)) | percentage of precipitable amyloid, after the decrease (human amylin [3]; 200 μM tetracycline, 10 μM human amylin, 50 h incubation period) [%] | percentage of precipitable amyloid, before the decrease (human amylin [3]; 200 μM tetracycline, 10 μM human amylin, start of the decrease) |
| --- | --- | --- | --- | --- | --- | --- | --- | --- | --- | --- | --- | --- | --- | --- | --- |
| CN(C)c1ccc2cc3ccc(N(C)C)cc3nc2c1 [acridine orange] | cytotoxic | no increase in thioflavin-T enhanced fluorescence | 50 | 30 |  |  |  |  |  |  |  |  |  |  |  |
| Cc1cc2nc3ccc(N(C)C)cc3nc2cc1N [neutral red] | cytotoxic | no increase in thioflavin-T enhanced fluorescence |  |  | still formed characteristic amylin fibrils | small but significant reduction |  |  |  |  |  |  |  |  |  |
| CN(C)[C@@H]1C(=O)C(C(N)=O)=C(O)[C@@]2(O)C(=O)C3=C(O)c4c(O)cccc4[C@@](C)(O)[C@H]3C[C@@H]12 [tetracycline] |  | immediate increase in fluorescence occurred, followed by a gradual decrease in fluorescence over the next 24 h |  |  | short fragmented structures |  | cytotoxic | initial but significantly decreased formation of a mylin fibril-associated fluorescence up to 2 h ours, followed by a gradual decrease in fluorescence | appears to slow the rate of formation of human amylin fibrils | short fragmented fibrils | fragments of amylin fibrils interdispersed with smaller fibrils | ~50 | unaffected | ~60 | approximately 85% |
